We go through three compounds from patent US20060166996A1, “Phthalazine derivatives as phosphodiesterase 4 inhibitors” (Zambon Group S.P.A., priority 2002, published 2006).

The target in data set [1] is T1, PDE 4 enzyme.
T1 construct: % at 10^−7; other: at 10^−7; PDE 4 from U937 cell line; other: PDE 4 isolated from U937 cell line; SPA with 3H-cAMP
The experiment in a line: PDE 4 enzyme inhibition (SPA). The class given is biochemical. The conditions noted are these: PDE 4 isolated from U937 cell line; SPA with 3H-cAMP. Here is the method: a) PDE 4 Enzyme Purification
PDE 4 enzyme was isolated from U937 cell line according to the method of Nielson et al. (J. Allergy Clin. Immunol. 1990, vol. 86, pages 801-807) partially modified for the FPLC technique (Fast Protein Liquid Chromatography).
U-937cell line (Istituto Zooprofilattico Sperimentale, Brescia, Italy) was maintained in RPMI 1640, with 10% foetal calf serum and 2 mM glutamine, at a cell density between 1×10^6 and 8×10^6 cells per ml in an incubator at 37° C. with 5% CO2.
U937 suspension was homogenised in a buffer containing 10 mM TRIS (tri-(hydroxymethyl)-aminomethane), 5 mM MgCl2, 4 mM EGTA (ethyleneglycol-bis-(β-aminoethylether)-N,N,N′N′-tetra-acetic acid), 5 mM […]-mercaptoethanol, 1 μM leupeptin, 1 μM pepstatin, 1% TRITON x-100, and 100 μM phenylmethyl sulfonyl fluoride (PMSF) at pH 7.8.
The homogenate was centrifuged and the supernatant was used for the purification of the PDE 4 enzyme; it was seeded on a column connected to a biologic chromatography system (FPLC, BIO RAD).
PDE 4 enzyme was eluted with a linear gradient, from 0.05 M to 1 M of sodium acetate, and elution fractions were collected for PDE4 activity assay.
The fractions containing PDE4 activity were collected and, after an overnight dialysis against water to remove sodium acetate, were concentrated to 30% volume with an Amicon filtration system (using YM10 membrane filter).
Ethylene glycol (30% v/v) was added and the sample was stored at −20° C. in a single aliquot until the use.
PDE 4 activity assay was performed using Scintillation Proximity Assay (SPA) Amershan kit consisting of tracer ^3H-cAMP, PDE assay buffer (10×solution: 500 mM TRIS/HCl pH 7.5, 83 mM MgCl2 and 17 mM EGTA) and Yttrium SPA PDE beads (containing 18 mM zinc sulphate).
The radioactivity of the beads was measured using a scintillation counter (Packard model MINAXI β TRI-CARB 4000 SERIES).
The IC50 values were calculated from concentration-inhibition curves by non linear regression analysis using the program ORIGIN 3.5 (MICROCAL SOFTWARE INC.) and each fitting was the mean±SEM of 3 experiments using different PDE 4 preparations.

A short description of data set [2]: Pharmacokinetic study in rats. The class given is in vivo. Particulars: for PK rat t/2: 10 mg/kg oral or 3 mg/kg intravenously, mixture of 3-5 compounds; for bioavailability: plasma, rat, oral 10 mg/kg in N-methylglucosamine/PG/Tween 80 (physiologic vehicle), read-out: PK rat % F. Here is the method: A mixture containing 3-5 compounds according to what described by Ward K. W. et al. (Drug Metab. Dispos. 2001, vol. 29, 82-88) was administered to rats at 10 mg/kg dosage by oral route (1 mg/ml in 77% N-methylglucosamine 25 mM and 20% PG containing 3% Tween 80) or 3 mg/kg intravenously (3 mg/ml in 15% DMSO/85% PEG).
The animals received only one treatment per study.
The rats permanently implanted with jugular catheter (Silastic®, Dow Corning) were treated with the test mixture by an intravenous bolus (via implanted catheter) or by oral gavage. Blood samples were collected from the jugular catheter at different times up to 6 h after administration.
Plasma samples were analyzed after protein precipitation by two volumes of CH3CN and plasma concentrations were determined by liquid chromatography/mass spectrometry.
Being poor the solubility of the compounds comprised in the general formula of the international patent application WO 00/05218, it was necessary to performe the pharmacokinetic studies using a 15% DMSO/85% PEG solution of the compounds both for intravenous and for oral route, i.e. by an absolutely non physiological vehicle.

Structures are written as SMILES.

Turning to `COc1ccc2c(Cc3c(Cl)cncc3Cl)nnc(-c3cccc(C(=O)O)c3)c2c1` [Compound 2, 3-[4-(3,5-dichloro-pyridin-4-ylmethyl)-7-methoxy-phthalazin-1-yl]-benzoic Acid], the half-inhibitory concentration (IC50) in data set [1] worked out at 37 nM. Further, in data set [2], the “PK rat t/2” value worked out at 132 min and the bioavailability was found to be 43%.

As to `O=C(O)c1cccc(-c2nnc(Cc3c(Cl)cncc3Cl)c3ccc(OC(F)F)cc23)c1` [Compound 8, 3-[4-(3,5-dichloro-pyridin-4-ylmethyl)-7-difluoromethoxy-phthalazin-1-yl]-benzoic Acid], in data set [2], the “PK rat t/2” value stood at 66 min and the bioavailability stood at 41%.

With `COc1ccc2c(Cc3c(Cl)cncc3Cl)nnc(-c3sccc3C(=O)O)c2c1` [Compound 10, 2-[4-(3,5-dichloro-pyridin-4-ylmethyl)-7-methoxy-phthalazin-1-yl]-thiophene-3-carboxylic Acid], the IC50 in data set [1] was 48 nM. Besides, in data set [2], the “PK rat t/2” value turned out to be 21 min and the bioavailability worked out at 7%.
